Measured values from PubChem BioAssay (NCI).
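In this assay, cells in 96-well plates receive the compound at five concentrations for 48 hours. Endpoints are linearly interpolated between the surrounding concentrations. GI50: concentration for 50% inhibition of growth. TGI marks complete inhibition of growth.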

How the values were obtained:
Experiment in all cases: growth of human tumour cells (NCI), 48 h
OVCAR-8 ovarian = test system: OVCAR-8 ovarian
SK-MEL-2 melanoma = test system: SK-MEL-2 melanoma
NCI-H460 lung = test system: NCI-H460 lung
CAKI-1 renal = test system: CAKI-1 renal
M14 melanoma = test system: M14 melanoma
TK-10 renal = test system: TK-10 renal
LOX IMVI melanoma = test system: LOX IMVI melanoma
RPMI-8226 leukemia = test system: RPMI-8226 leukemia
CCRF-CEM leukemia = test system: CCRF-CEM leukemia

Work on Cc1cc(NS(=O)(=O)c2ccc(N=Nc3cc(N=Nc4ccc(S(=O)(=O)Nc5cc(C)nc(C)n5)cc4)c4c(NC(=O)C(Cl)Cl)cccc4c3OC(=O)C(Cl)Cl)cc2)nc(C)n1 (tested in a mixture with another compound) yielded a TGI (OVCAR-8 ovarian) greater than 100 µM, a TGI (SK-MEL-2 melanoma) of 81.1 µM and a TGI (NCI-H460 lung) greater than 100 µM. The TGI (CAKI-1 renal) was 78.6 µM, the TGI (M14 melanoma) was 70.2 µM and the TGI (TK-10 renal) was 88.1 µM. It also gave a TGI (LOX IMVI melanoma) of 34.3 µM.

In the case of [O-]c1c2c(nn1-c1ccccc1)c1ccccc1c[n+]2Cc1ccccc1, the TGI (OVCAR-8 ovarian) is reported as greater than 100 µM, the TGI (SK-MEL-2 melanoma) is reported as greater than 100 µM and the TGI (NCI-H460 lung) is reported as greater than 100 µM. The TGI (RPMI-8226 leukemia) was greater than 100 µM, the TGI (CCRF-CEM leukemia) was greater than 100 µM and the TGI (M14 melanoma) was greater than 100 µM. The TGI (TK-10 renal) was greater than 100 µM and the TGI (LOX IMVI melanoma) was greater than 100 µM.

In the case of COC(=O)C1=C(O)c2cc(OC)c(OC)c(OC)c2[C@H](c2cc(OC)c(OC)c(OC)c2)C1C(=O)OC (some centres undefined), the TGI (OVCAR-8 ovarian) is reported as greater than 100 µM, the TGI (NCI-H460 lung) is reported as greater than 100 µM and the TGI (CAKI-1 renal) is reported as greater than 100 µM. The TGI (RPMI-8226 leukemia) was 87.1 µM, the TGI (CCRF-CEM leukemia) was greater than 100 µM and the TGI (M14 melanoma) was greater than 100 µM. The TGI (TK-10 renal) was greater than 100 µM and the TGI (LOX IMVI melanoma) was greater than 100 µM.

COC(=O)C1=C2CCC(=O)[C@@]2(C)C(OC(C)=O)C=CC1 (some centres undefined) was tested, and the TGI (OVCAR-8 ovarian) was greater than 100 µM, the TGI (SK-MEL-2 melanoma) was greater than 100 µM and the TGI (NCI-H460 lung) was greater than 100 µM. For the same compound, the TGI (CAKI-1 renal) was greater than 100 µM, the TGI (RPMI-8226 leukemia) was greater than 100 µM and the TGI (CCRF-CEM leukemia) was greater than 100 µM. For the same compound, the TGI (M14 melanoma) was greater than 100 µM and the TGI (TK-10 renal) was greater than 100 µM.

CCC[CH2][Sn]1([CH2]CCC)[O]C(=O)c2cc(I)cc(I)c2[O]1 was tested, and the GI50 (OVCAR-8 ovarian) was 1.41 µM, the TGI (OVCAR-8 ovarian) was 3.01 µM and the GI50 (SK-MEL-2 melanoma) was 0.491 µM. It also gave a TGI (SK-MEL-2 melanoma) of 1.94 µM, a GI50 (NCI-H460 lung) of 1.45 µM and a TGI (NCI-H460 lung) of 2.76 µM. It also gave a GI50 (CAKI-1 renal) of 0.637 µM, a TGI (CAKI-1 renal) of 2.15 µM and a GI50 (RPMI-8226 leukemia) of 0.238 µM. For the same compound, the TGI (RPMI-8226 leukemia) was 1.16 µM, the GI50 (CCRF-CEM leukemia) was 0.22 µM and the TGI (CCRF-CEM leukemia) was 0.79 µM. The GI50 (M14 melanoma) was 1.66 µM, the TGI (M14 melanoma) was 3.17 µM and the GI50 (TK-10 renal) was 1.25 µM. It also gave a TGI (TK-10 renal) of 2.52 µM, a GI50 (LOX IMVI melanoma) of 0.8 µM and a TGI (LOX IMVI melanoma) of 2.39 µM.

In the case of CCOC(=O)/C(O)=C(/c1n[nH]c(=O)c2ccccc12)[N+](=O)[O-], the TGI (OVCAR-8 ovarian) is reported as greater than 100 µM, the TGI (SK-MEL-2 melanoma) is reported as greater than 100 µM and the TGI (NCI-H460 lung) is reported as greater than 100 µM. It also gave a TGI (RPMI-8226 leukemia) greater than 100 µM, a TGI (CCRF-CEM leukemia) greater than 100 µM and a TGI (M14 melanoma) greater than 100 µM. It also gave a TGI (TK-10 renal) greater than 100 µM and a TGI (LOX IMVI melanoma) greater than 100 µM.

With O=c1cccccc1NCCOCCNc1cccccc1=O the TGI (OVCAR-8 ovarian) was greater than 100 µM, the TGI (SK-MEL-2 melanoma) was greater than 100 µM and the TGI (NCI-H460 lung) was greater than 100 µM. It also gave a TGI (CAKI-1 renal) greater than 100 µM, a TGI (RPMI-8226 leukemia) greater than 100 µM and a TGI (CCRF-CEM leukemia) greater than 100 µM. For the same compound, the TGI (M14 melanoma) was greater than 100 µM, the TGI (TK-10 renal) was greater than 100 µM and the TGI (LOX IMVI melanoma) was greater than 100 µM.

In the case of CCCN(CCCCC(NC(C)=O)C(=O)NCc1ccccc1)C(=O)N(C)N=O (centres undefined), the TGI (OVCAR-8 ovarian) is reported as greater than 100 µM, the TGI (SK-MEL-2 melanoma) is reported as greater than 100 µM and the TGI (NCI-H460 lung) is reported as greater than 100 µM. It also gave a TGI (CAKI-1 renal) greater than 100 µM, a TGI (RPMI-8226 leukemia) greater than 100 µM and a TGI (CCRF-CEM leukemia) greater than 100 µM. The TGI (M14 melanoma) was greater than 100 µM, the TGI (TK-10 renal) was greater than 100 µM and the TGI (LOX IMVI melanoma) was greater than 100 µM.

Work on COc1cc(C2=NN(C)C(c3ccc([N+](=O)[O-])o3)C2)cc(OC)c1OC (centres undefined) yielded a TGI (OVCAR-8 ovarian) greater than 100 µM, a TGI (SK-MEL-2 melanoma) greater than 100 µM and a TGI (NCI-H460 lung) greater than 100 µM. The TGI (CAKI-1 renal) was greater than 100 µM, the TGI (RPMI-8226 leukemia) was 31.8 µM and the TGI (CCRF-CEM leukemia) was 72 µM. It also gave a TGI (M14 melanoma) greater than 100 µM, a TGI (TK-10 renal) greater than 100 µM and a TGI (LOX IMVI melanoma) greater than 100 µM.

Compound O=S(=O)(/C=C/c1ccc(Cl)cc1Cl)Cc1ccccc1CS(=O)(=O)/C=C/c1ccc(Cl)cc1Cl has a TGI (OVCAR-8 ovarian) greater than 100 µM, a TGI (SK-MEL-2 melanoma) greater than 100 µM and a TGI (NCI-H460 lung) greater than 100 µM. The TGI (CAKI-1 renal) was greater than 100 µM, the TGI (RPMI-8226 leukemia) was greater than 100 µM and the TGI (CCRF-CEM leukemia) was greater than 100 µM. The TGI (M14 melanoma) was greater than 100 µM, the TGI (TK-10 renal) was greater than 100 µM and the TGI (LOX IMVI melanoma) was greater than 100 µM.

In the case of COc1ccc(C(=O)C(c2ccc(OC)cc2)C2(O)C(=O)Nc3ccccc32)cc1 (centres undefined), the TGI (SK-MEL-2 melanoma) is reported as greater than 100 µM, the TGI (CAKI-1 renal) is reported as greater than 100 µM and the TGI (RPMI-8226 leukemia) is reported as greater than 100 µM. The TGI (CCRF-CEM leukemia) was greater than 100 µM, the TGI (M14 melanoma) was greater than 100 µM and the TGI (TK-10 renal) was greater than 100 µM. The TGI (LOX IMVI melanoma) was greater than 100 µM.

Compound CN(C)CCNC(=O)c1cc2ccccc2c2nc3ccccc3nc12 has a TGI (OVCAR-8 ovarian) greater than 20.4 µM, a TGI (SK-MEL-2 melanoma) of 2.81 µM and a TGI (CAKI-1 renal) greater than 21.3 µM. It also gave a TGI (RPMI-8226 leukemia) of 3.42 µM, a TGI (TK-10 renal) of 7.17 µM and a TGI (LOX IMVI melanoma) of 1.88 µM.

O=S(=O)(O)O.[NH-]C1CCCCC1[NH-].[Pt+2] (centres undefined) was tested, and the GI50 (OVCAR-8 ovarian) was 80.1 µM, the TGI (OVCAR-8 ovarian) was greater than 100 µM and the GI50 (SK-MEL-2 melanoma) was greater than 100 µM. The TGI (SK-MEL-2 melanoma) was greater than 100 µM, the GI50 (NCI-H460 lung) was 41 µM and the TGI (NCI-H460 lung) was greater than 100 µM. It also gave a GI50 (RPMI-8226 leukemia) of 48.6 µM, a TGI (RPMI-8226 leukemia) greater than 100 µM and a GI50 (CCRF-CEM leukemia) of 17.6 µM. For the same compound, the TGI (CCRF-CEM leukemia) was greater than 100 µM, the GI50 (M14 melanoma) was greater than 100 µM and the TGI (M14 melanoma) was greater than 100 µM. The GI50 (TK-10 renal) was greater than 100 µM, the TGI (TK-10 renal) was greater than 100 µM and the GI50 (LOX IMVI melanoma) was greater than 100 µM. It also gave a TGI (LOX IMVI melanoma) greater than 100 µM.

For C/C(CC(=O)Nc1ccc(Cl)c(Cl)c1)=N/NC(=O)C[n+]1ccccc1, the TGI (OVCAR-8 ovarian) was greater than 100 µM, the TGI (SK-MEL-2 melanoma) was greater than 100 µM and the TGI (NCI-H460 lung) was greater than 100 µM. It also gave a TGI (CAKI-1 renal) greater than 100 µM, a TGI (RPMI-8226 leukemia) greater than 100 µM and a TGI (CCRF-CEM leukemia) greater than 100 µM. It also gave a TGI (M14 melanoma) greater than 100 µM, a TGI (TK-10 renal) greater than 100 µM and a TGI (LOX IMVI melanoma) of 37.1 µM.

For COc1ccc(C(=O)OCC2OC(n3cnc4c(=S)nc[nH]c43)C(OC(=O)c3ccc(OC)cc3)C2OC(=O)c2ccc(OC)cc2)cc1 (centres undefined), the TGI (OVCAR-8 ovarian) was greater than 100 µM, the TGI (SK-MEL-2 melanoma) was greater than 100 µM and the TGI (NCI-H460 lung) was greater than 100 µM. The TGI (CAKI-1 renal) was greater than 100 µM, the TGI (RPMI-8226 leukemia) was greater than 100 µM and the TGI (CCRF-CEM leukemia) was 93.3 µM. It also gave a TGI (M14 melanoma) greater than 100 µM and a TGI (TK-10 renal) greater than 100 µM.
